Data on two substances can be found in US5278285A, “Variant of Kunitz-type inhibitor derived from the α3-chain of human type VI collagen produced by recombinant DNA technology” (Bayer Aktiengesellschaft, priority 1990, dated 1994).

The conditions of assay [1]: application during open heart surgery, clinical studies; cited from earlier work.
The test system of assay [2] is human trypsin. The assay can be described thus: Trypsin inhibition assay. The format is biochemical. Particulars: substrate benzoyl-L-arginine p-nitroanilide; product expressed in yeast. As to the method:
The trypsin activity was determined using the method of geiger & Fritz, Methods of Enzymatic Analysis, Vol. V, 3rd ed., Bergmeyer (ed.), Verlag Chemie, Weinheim (1984), p. 121 with benzoyl-L-arginine p-nitroanilide as substrate. The liberated p-nitroaniline was measured in a spectrophotometer at 405 nm. Enzyme and inhibitor were preincubated for 15 min before addition of the substrate.

Take aprotinin: in assay [1], the blood loss entry is given as “reduces blood loss significantly”.
For the substance “α3(VI) inhibitor: Kunitz type proteinase inhibitor, aminoacid pos. 2873 to 2931 of the C5 domain of human type VI collagen α3 chain, expressed in yeast (pKol 100)”, the “trypsin inhibition (biological activity)” value in assay [2] was “inhibits human trypsin”.
